Assay results taken from patent US11028079B2 (ConverGene LLC, priority 2015, dated 2021).

What follows are compounds tested against T1, BRD4 bromodomains (Homo sapiens, UniProt O60885) (assay: BROMOscan bromodomain competition binding assay (DiscoveRx)). Details: Kd from 11 compound concentrations ranging from 0 to 10 μM, read-out: BROMOscan Relative Activity.
T1 construct: fused on or other part: T7 phage capsid protein (phage-display fusion; the phage DNA is read out by qPCR)
Method in brief: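 Compounds in 0.1% DMSO/0.9% MEG competed with a solid-phase acetylated peptide for T7 phage-fused BRD4 bromodomains, with the retained bromodomain measured by qPCR.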

Kd | SMILES
> 5000 nM | Cc1noc(C)c1-c1ccc2nc(C(=O)Nc3ccncc3F)nc(NCc3cccc(Cl)c3)c2c1 [Example 223, 4-((3-chlorobenzyl)amino)-6-(3,5-dimethylisoxazol-4-yl)-N-(3-fluoropyridin-4-yl)quinazoline-2-carboxamide]
500 to 5000 nM | Cc1cc(NC(=O)c2nc(NCc3cccc(Cl)c3)c3cc(-c4c(C)noc4C)ccc3n2)cc(C)n1 [Example 224, 4-((3-chlorobenzyl)amino)-6-(3,5-dimethylisoxazol-4-yl)-N-(2,6-dimethylpyridin-4-yl)quinazoline-2-carboxamide]
< 500 nM | Cc1noc(C)c1-c1ccc2nc(C(=O)Nc3cnn(C)c3)nc(NCc3cccc(Cl)c3)c2c1 [Example 225, 4-((3-chlorobenzyl)amino)-6-(3,5-dimethylisoxazol-4-yl)-N-(1-methyl-1H-pyrazol-4-yl)quinazoline-2-carboxamide]
< 500 nM | Cc1noc(C)c1-c1ccc2nc(C(=O)NC3CCOCC3)nc(NCc3cccc(Cl)c3)c2c1 [Example 226, 4-((3-chlorobenzyl)amino)-6-(3,5-dimethylisoxazol-4-yl)-N-(tetrahydro-2H-pyran-4-yl)quinazoline-2-carboxamide]
< 500 nM | Cc1noc(C)c1-c1ccc2nc(C(=O)NC3CCOCC3)nc(NCc3cncc(Cl)c3)c2c1 [Example 229, 4-(((5-chloropyridin-3-yl)methyl)amino)-6-(3,5-dimethylisoxazol-4-yl)-N-(tetrahydro-2H-pyran-4-yl)quinazoline-2-carboxamide]
< 500 nM | Cc1nn(C)cc1CNC(=O)c1cc(NCc2cccc(Cl)c2)c2cc(-c3c(C)noc3C)ccc2n1 [Example 230, 4-((3-chlorobenzyl)amino)-N-((1,3-dimethyl-1H-pyrazol-4-yl)methyl)-6-(3,5-dimethylisoxazol-4-yl)quinoline-2-carboxamide]
< 500 nM | Cc1noc(C)c1-c1ccc2nc(C(=O)NCc3cncn3C)nc(NCc3cncc(Cl)c3)c2c1 [Example 232, 4-(((5-chloropyridin-3-yl)methyl)amino)-6-(3,5-dimethylisoxazol-4-yl)-N-((1-methyl-1H-imidazol-5-yl)methyl)quinazoline-2-carboxamide]
< 500 nM | Cc1noc(C)c1-c1ccc2nc(C(=O)NCC3CN(C)C3)nc(NCc3cncc(Cl)c3)c2c1 [Example 233, 4-(((5-chloropyridin-3-yl)methyl)amino)-6-(3,5-dimethylisoxazol-4-yl)-N-((1-methylazetidin-3-yl)methyl)quinazoline-2-carboxamide]
< 500 nM | Cc1noc(C)c1-c1ccc2nc(C(=O)NC3CN(C)C3)nc(NCc3cncc(Cl)c3)c2c1 [Example 237, 4-(((5-chloropyridin-3-yl)methyl)amino)-6-(3,5-dimethylisoxazol-4-yl)-N-(1-methylazetidin-3-yl)quinazoline-2-carboxamide]
< 500 nM | Cc1nn(C)cc1CNC(=O)c1nc(NCc2cncc(Cl)c2)c2cc(-c3c(C)noc3C)ccc2n1 [Example 238, 4-(((5-chloropyridin-3-yl)methyl)amino)-N-((1,3-dimethyl-1H-pyrazol-4-yl)methyl)-6-(3,5-dimethylisoxazol-4-yl)quinazoline-2-carboxamide]
< 500 nM | Cc1noc(C)c1-c1ccc2nc(C(=O)NC3CCS(=O)(=O)CC3)nc(NCc3cncc(Cl)c3)c2c1 [Example 239, 4-(((5-chloropyridin-3-yl)methyl)amino)-6-(3,5-dimethylisoxazol-4-yl)-N-(1,1-dioxidotetrahydro-2H-thiopyran-4-yl)quinazoline-2-carboxamide]
< 500 nM | Cc1noc(C)c1-c1ccc2nc(N3CCS(=O)(=O)CC3)nc(NCc3cncc(Cl)c3)c2c1 [Example 241, 4-(4-(((5-chloropyridin-3-yl)methyl)amino)-6-(3,5-dimethylisoxazol-4-yl)quinazolin-2-yl)thiomorpholine 1,1-dioxide]
< 500 nM | Cc1nn(C)cc1CNC(=O)c1nc(NC2(c3cccc(Cl)c3)CC2)c2cc(-c3c(C)noc3C)ccc2n1 [Example 245, 4-((1-(3-chlorophenyl)cyclopropyl)amino)-N-((1,3-dimethyl-1H-pyrazol-4-yl)methyl)-6-(3,5-dimethylisoxazol-4-yl)quinazoline-2-carboxamide]
< 500 nM | Cc1noc(C)c1-c1ccc2nc(N3CCN(C(=O)N(C)C)CC3)nc(NCc3cncc(Cl)c3)c2c1 [Example 248, 4-(4-(((5-chloropyridin-3-yl)methyl)amino)-6-(3,5-dimethylisoxazol-4-yl)quinazolin-2-yl)-N,N-dimethylpiperazine-1-carboxamide]
< 500 nM | Cc1cc(CNC(=O)c2nc(NCc3cccc(Cl)c3)c3cc(-c4c(C)noc4C)ccc3n2)ccn1 [Example 249, 4-((3-chlorobenzyl)amino)-6-(3,5-dimethylisoxazol-4-yl)-N-((2-methylpyridin-4-yl)methyl)quinazoline-2-carboxamide]
< 500 nM | Cc1noc(C)c1-c1ccc2nc(C(=O)NCc3nccn3C)nc(NCc3cccc(Cl)c3)c2c1 [Example 251, 4-((3-chlorobenzyl)amino)-6-(3,5-dimethylisoxazol-4-yl)-N-((1-methyl-1H-imidazol-2-yl)methyl)quinazoline-2-carboxamide]
< 500 nM | Cc1noc(C)c1-c1ccc2nc(C(=O)N[C@H]3C[C@H](O)C3)nc(NCc3cccc(Cl)c3)c2c1 [Example 253, 4-((3-chlorobenzyl)amino)-6-(3,5-dimethylisoxazol-4-yl)-N-((trans)-3-hydroxycyclobutyl)quinazoline-2-carboxamide]

Continued, compound first:

SMILES | Kd
CN1CCC(NC(=O)c2cc(NCc3cccc(Cl)c3)c3cc(-c4ccc(=O)n(C)c4)ccc3n2)CC1 [Example 227, 4-((3-chlorobenzyl)amino)-6-(1-methyl-6-oxo-1,6-dihydropyridin-3-yl)-N-(1-methylpiperidin-4-yl)quinoline-2-carboxamide] | < 500 nM
Cc1noc(C)c1-c1ccc2nc(C(=O)NC3CCN(C)CC3)cc(NCc3cccc(Cl)c3)c2c1 [Example 228, 4-((3-chlorobenzyl)amino)-6-(3,5-dimethylisoxazol-4-yl)-N-(1-methylpiperidin-4-yl)quinoline-2-carboxamide] | < 500 nM
Cc1noc(C)c1-c1ccc2nc(C(=O)NCC3CN(C)C3)cc(NCc3cccc(Cl)c3)c2c1 [Example 231, 4-((3-chlorobenzyl)amino)-6-(3,5-dimethylisoxazol-4-yl)-N-((1-methylazetidin-3-yl)methyl)quinoline-2-carboxamide] | < 500 nM
Cc1noc(C)c1-c1ccc2nc(C(=O)NC3CN(C)C3)cc(NCc3cccc(Cl)c3)c2c1 [Example 234, 4-((3-chlorobenzyl)amino)-6-(3,5-dimethylisoxazol-4-yl)-N-(1-methylazetidin-3-yl)quinoline-2-carboxamide] | < 500 nM
Cc1noc(C)c1-c1ccc2nc(C(=O)NC3CCS(=O)(=O)CC3)cc(NCc3cccc(Cl)c3)c2c1 [Example 235, 4-((3-chlorobenzyl)amino)-6-(3,5-dimethylisoxazol-4-yl)-N-(1,1-dioxidotetrahydro-2H-thiopyran-4-yl)quinoline-2-carboxamide] | < 500 nM
Cc1noc(C)c1-c1ccc2nc(C(=O)NC3CCOCC3)cc(NCc3cccc(Cl)c3)c2c1 [Example 236, 4-((3-chlorobenzyl)amino)-6-(3,5-dimethylisoxazol-4-yl)-N-(tetrahydro-2H-pyran-4-yl)quinoline-2-carboxamide] | < 500 nM
Cc1noc(C)c1-c1ccc2nc(C(=O)NCC3CN(C)C3)nc(NC3(c4cccc(Cl)c4)CC3)c2c1 [Example 240, 4-((1-(3-chlorophenyl)cyclopropyl)amino)-6-(3,5-dimethylisoxazol-4-yl)-N-((1-methylazetidin-3-yl)methyl)quinazoline-2-carboxamide] | < 500 nM
Cc1noc(C)c1-c1ccc2nc(C(=O)NC3CN(C)C3)nc(NC3(c4cccc(Cl)c4)CC3)c2c1 [Example 242, 4-((1-(3-chlorophenyl)cyclopropyl)amino)-6-(3,5-dimethylisoxazol-4-yl)-N-(1-methylazetidin-3-yl)quinazoline-2-carboxamide] | < 500 nM
Cc1noc(C)c1-c1ccc2nc(N3CCS(=O)(=O)CC3)nc(NCc3cccc(Cl)c3)c2c1 [Example 243, 4-(4-((3-chlorobenzyl)amino)-6-(3,5-dimethylisoxazol-4-yl)quinazolin-2-yl)thiomorpholine 1,1-dioxide] | 500 to 5000 nM
Cc1noc(C)c1-c1ccc2nc(N3CCN(C(=O)N(C)C)CC3)nc(NCc3cccc(Cl)c3)c2c1 [Example 244, 4-(4-((3-chlorobenzyl)amino)-6-(3,5-dimethylisoxazol-4-yl)quinazolin-2-yl)-N,N-dimethylpiperazine-1-carboxamide] | < 500 nM
Cc1noc(C)c1-c1ccc2nc(C(=O)NC3CCS(=O)(=O)CC3)nc(NC3(c4cccc(Cl)c4)CC3)c2c1 [Example 246, 4-((1-(3-chlorophenyl)cyclopropyl)amino)-6-(3,5-dimethylisoxazol-4-yl)-N-(1,1-dioxidotetrahydro-2H-thiopyran-4-yl)quinazoline-2-carboxamide] | < 500 nM
Cc1noc(C)c1-c1ccc2nc(C(=O)NC3CCOCC3)nc(NC3(c4cccc(Cl)c4)CC3)c2c1 [Example 247, 4-((1-(3-chlorophenyl)cyclopropyl)amino)-6-(3,5-dimethylisoxazol-4-yl)-N-(tetrahydro-2H-pyran-4-yl)quinazoline-2-carboxamide] | < 500 nM
Cc1noc(C)c1-c1ccc2nc(C(=O)N[C@H]3CC[C@H](O)CC3)nc(NCc3cccc(Cl)c3)c2c1 [Example 250, 4-((3-chlorobenzyl)amino)-6-(3,5-dimethylisoxazol-4-yl)-N-((trans)-4-hydroxycyclohexyl)quinazoline-2-carboxamide] | < 500 nM
Cc1noc(C)c1-c1ccc2nc(C(=O)NC3CCC(F)(F)CC3)nc(NCc3cccc(Cl)c3)c2c1 [Example 252, 4-((3-chlorobenzyl)amino)-N-(4,4-difluorocyclohexyl)-6-(3,5-dimethylisoxazol-4-yl)quinazoline-2-carboxamide] | 500 to 5000 nM
